Measured values published in patent publication US20070197522A1, “Dpp-iv inhibitors” (priority 2004, published 2007).
Structures can show the parent of a compound that is named as a salt.

Molecular target: T1, DPP-IV (Homo sapiens, UniProt P27487)
T1 construct: Soluble human DPP-IV lacking the transmembrane anchor (Gly31-Pro766) was expressed in a recombinant YEAST-strain; Pre-Pro-alpha-mating factor leader (secretion fusion) (N, cleaved yes); made in house
Test: Inhibition of DPP-IV peptidase activity, continuous fluorimetric assay (Gly-Pro-AMC cleavage)
Type: biochemical, human and porcine
Conditions: inhibition of DPP-IV peptidase activity; 50 pM DPP-IV, 16 μM Gly-Pro-AMC, pH 7.4, 25° C.; values grouped in 3 classes; read-out: IC50
Procedure: Inhibition of DPP-IV peptidase activity was monitored with a continuous fluorimetric assay. This assay is based on the cleavage of the substrate Gly-Pro-AMC (Bachem) by DPP-IV, releasing free AMC. The assay is carried out in 96-well microtiterplates. In a total volume of 100 μL, compounds are preincubated with 50 pM DPP-IV employing a buffer containing 10 mM Hepes, 150 mM NaCl, 0.005% Tween 20 (pH 7.4). […] The final concentration of DMSO is 1%. The inhibitory potential of the compounds were determined.
Soluble human DPP-IV lacking the transmembrane anchor (Gly31-Pro766) was expressed in a recombinant YEAST-strain as Pre-Pro-alpha-mating fusion. The secreted product (rhuDPP-IV-Gly31-Pro766) was purified from fermentation broth (>90% purity).

T1 sequence (P27487 31-766): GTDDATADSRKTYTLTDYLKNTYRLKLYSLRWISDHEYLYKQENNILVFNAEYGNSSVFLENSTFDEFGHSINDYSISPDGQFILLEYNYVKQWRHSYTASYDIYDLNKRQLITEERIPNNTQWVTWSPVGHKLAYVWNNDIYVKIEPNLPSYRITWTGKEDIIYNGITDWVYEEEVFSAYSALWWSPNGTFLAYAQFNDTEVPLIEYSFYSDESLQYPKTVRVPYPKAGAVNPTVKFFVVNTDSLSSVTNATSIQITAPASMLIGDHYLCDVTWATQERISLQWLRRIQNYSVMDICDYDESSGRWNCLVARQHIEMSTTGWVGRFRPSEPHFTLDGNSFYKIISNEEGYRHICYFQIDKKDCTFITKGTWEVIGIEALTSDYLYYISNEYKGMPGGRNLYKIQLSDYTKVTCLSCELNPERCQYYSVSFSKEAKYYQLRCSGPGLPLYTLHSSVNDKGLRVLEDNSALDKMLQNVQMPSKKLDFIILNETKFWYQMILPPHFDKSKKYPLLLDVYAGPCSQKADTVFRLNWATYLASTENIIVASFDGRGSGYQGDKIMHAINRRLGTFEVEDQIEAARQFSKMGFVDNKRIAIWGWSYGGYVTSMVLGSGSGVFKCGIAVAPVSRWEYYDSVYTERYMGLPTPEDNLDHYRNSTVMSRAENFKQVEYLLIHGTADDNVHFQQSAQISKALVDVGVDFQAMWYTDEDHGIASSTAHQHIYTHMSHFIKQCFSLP

Structure (SMILES)	IC50 [µM]
N[C@@H](CC(=O)NCc1cnn(-c2ccccc2)c1)Cc1ccccc1F [Example 163]	0.101 to 1
C[C@H](CNC(=O)C[C@H](N)Cc1ccccc1F)c1ccccc1 [Example 93]	1 to 2
N[C@@H](CC(=O)NCc1cccc(C(=O)Nc2ccccn2)c1)Cc1ccccc1F [Example 34]	0.101 to 1
NC(CC(=O)NCC(c1ccccc1Cl)N1CCCC1)Cc1ccccc1F (single isomer, unassigned) [Example 134]	< 0.1
N[C@@H](CC(=O)NCCc1ccccn1)Cc1ccccc1F [Example 40]	0.101 to 1
Cn1c(CNC(=O)C[C@H](N)Cc2ccccc2F)nc2ccccc21 [Example 146]	0.101 to 1
N[C@@H](CC(=O)NC1Cc2ccccc2C1)Cc1ccccc1F [Example 55]	0.101 to 1
N[C@@H](CC(=O)NCc1ccccc1F)Cc1ccccc1F [Example 117]	0.101 to 1
CN(C)CCOc1ccc(CNC(=O)C[C@H](N)Cc2ccccc2F)cc1 [Example 143]	1 to 2
CN(Cc1ccccc1)C(=O)C[C@H](N)Cc1ccccc1F [Example 121]	0.101 to 1
N[C@@H](CC(=O)NCc1ccc2c(c1)OCCO2)Cc1ccccc1F [Example 61]	0.101 to 1
NC(=O)c1cccc(CNC(=O)C[C@H](N)Cc2ccccc2F)c1 [Example 30, 3-{[(3R)-3-Amino-4-(2-fluoro-phenyl)-butyrylamino]-methyl}-benzamide Trifluoroacetate Salt]	0.101 to 1
CN1CCN(CC(c2ccccc2)N(C)C(=O)C[C@H](N)Cc2ccccc2F)CC1 (stereo partly drawn) [Example 160]	1 to 2
Cc1nn(-c2ccccc2)c(C)c1CNC(=O)C[C@H](N)Cc1ccccc1F [Example 140]	0.101 to 1
N[C@@H](CC(=O)NCc1ccc(S(N)(=O)=O)cc1)Cc1ccccc1F [Example 147]	0.101 to 1
COc1ccc(Oc2cccc(F)c2CNC(=O)C[C@H](N)Cc2ccccc2F)cc1 [Example 142]	0.101 to 1
N[C@@H](CC(=O)NCCc1ccc(F)cc1)Cc1ccccc1F [Example 110]	1 to 2
N[C@@H](CC(=O)NCc1cccc(C(=O)NCc2ccc(S(N)(=O)=O)cc2)c1)Cc1ccccc1F [Example 35]	0.101 to 1
CN(Cc1ccccc1F)C(=O)C[C@H](N)Cc1ccccc1F [Example 36, (3R)-Amino-N-(2-fluoro-benzyl)-4-(2-fluoro-phenyl)-N-methyl-butyramide Hydrochloride]	0.101 to 1
CN(CC(c1ccccc1Cl)N1CCCC1)C(=O)C[C@H](N)Cc1ccccc1F (stereo partly drawn) [Example 178]	< 0.1

Structure (SMILES)	IC50 [µM]
NC(CC(=O)NCc1ccc(Oc2ccccc2)cc1)Cc1ccccc1F (stereo not drawn) [Example 76]	0.101 to 1
CS(=O)(=O)c1ccc(CNC(=O)C[C@H](N)Cc2ccccc2F)cc1 [Example 141]	0.101 to 1
N[C@@H](CC(=O)NCC1OCCc2ccccc21)Cc1ccccc1F (single isomer, unassigned) [Example 67]	0.101 to 1
C[S+]([O-])c1ccccc1CNC(=O)C[C@H](N)Cc1ccccc1F (single isomer, unassigned) [Example 137]	0.101 to 1
N[C@@H](CC(=O)NCc1cc(-c2ccc(Cl)cc2)no1)Cc1ccccc1F [Example 152]	0.101 to 1
Cc1onc(-c2ccccc2)c1CNC(=O)C[C@H](N)Cc1ccccc1F [Example 149]	0.101 to 1
N[C@H](Cc1ccccc1F)CS(=O)(=O)NCc1cccc(C(F)(F)F)c1 [Example 192, (R)-2-Amino-3-(2-fluoro-phenyl)-propane-1-sulphonic acid 3-trifluoromethyl-benzyl-amide]	0.101 to 1
N[C@@H](CC(=O)N(Cc1cccnc1)C1CC1)Cc1ccccc1F [Example 145]	0.101 to 1
Cc1ccccc1-n1nc(C)c(CNC(=O)C[C@H](N)Cc2ccccc2F)c1C [Example 151]	0.101 to 1
N[C@@H](CC(=O)NC(CN1CCCCC1)c1ccccc1)Cc1ccccc1F (single isomer, unassigned) [Example 109]	0.101 to 1
N[C@@H](CC(=O)NCC(c1ccccc1Cl)N1CCOCC1)Cc1ccccc1F (stereo partly drawn) [Example 156]	0.101 to 1
N[C@@H](CC(=O)NCCc1c(F)cccc1Cl)Cc1ccccc1F [Example 114]	0.101 to 1
N[C@@H](CC(=O)NCc1ccncc1)Cc1ccccc1F [Example 48]	0.101 to 1
NC(CC(=O)NC1c2ccccc2CC1O)Cc1ccccc1F (stereo not drawn) [Example 43]	1 to 2
N[C@@H](CC(=O)NCc1cc(F)cc(F)c1)Cc1ccccc1F [Example 46]	0.101 to 1
NC(CC(=O)N(Cc1ccccc1F)C1CC1)Cc1ccccc1F (stereo not drawn) [Example 144]	0.101 to 1
N[C@@H](CC(=O)NCCc1ccc(Cl)cc1)Cc1ccccc1F [Example 95]	0.101 to 1
Cc1ccccc1CNC(=O)C[C@H](N)Cc1ccccc1F [Example 49]	0.101 to 1
N[C@@H](CC(=O)NC(CN1CCCC1)c1ccccc1)Cc1ccccc1F (single isomer, unassigned) [Example 87]	< 0.1
CC(NC(=O)C[C@H](N)Cc1ccccc1F)c1ccc(-n2ccnc2)cc1 (stereo partly drawn) [Example 174]	0.101 to 1

Structure (SMILES)	IC50 [µM]
COc1ccccc1CCNC(=O)C[C@H](N)Cc1ccccc1F [Example 97]	1 to 2
NC(CC(=O)NCCc1cccc(F)c1)Cc1ccccc1F (stereo not drawn) [Example 111]	1 to 2
NC(CC(=O)NCC(c1ccc(Cl)cc1)N1CCOCC1)Cc1ccccc1F (stereo not drawn) [Example 158]	0.101 to 1
CN(Cc1ccc(F)cc1)C(=O)C[C@H](N)Cc1ccccc1F [Example 125]	0.101 to 1
N[C@@H](CC(=O)NCCc1ccc(S(N)(=O)=O)cc1)Cc1ccccc1F [Example 104]	0.101 to 1
N[C@@H](CC(=O)NCc1cccc(F)c1)Cc1ccccc1F [Example 118]	0.101 to 1
CCOc1ccccc1CCNC(=O)C[C@H](N)Cc1ccccc1F [Example 130]	0.101 to 1
Cc1ccc(C(C)NC(=O)CC(N)Cc2ccccc2F)cc1 (stereo not drawn) [Example 89]	0.101 to 1
N#Cc1ccc(CNC(=O)C[C@H](N)Cc2ccccc2F)cc1 [Example 129]	0.101 to 1
N[C@@H](CC(=O)NCc1ccccc1N1CCCCC1)Cc1ccccc1F [Example 154]	0.101 to 1
N[C@@H](CC(=O)N[C@@H](CN1CCCCC1)c1ccccc1)Cc1ccccc1F [Example 173]	0.101 to 1
N[C@@H](CC(=O)NCc1cccc(Oc2ccccc2)c1)Cc1ccccc1F [Example 77]	0.101 to 1
N[C@@H](CC(=O)NCc1cccc(OC(F)F)c1)Cc1ccccc1F [Example 139]	0.101 to 1
N[C@@H](CC(=O)NCCc1cccnc1)Cc1ccccc1F [Example 83]	0.101 to 1
Cc1cc(CNC(=O)C[C@H](N)Cc2ccccc2F)no1 [Example 62]	0.101 to 1
N[C@@H](CC(=O)NCC1CCCc2ccccc21)Cc1ccccc1F (single isomer, unassigned) [Example 78]	0.101 to 1
CC(CNC(=O)C[C@H](N)Cc1ccccc1F)c1ccc(Cl)cc1 (single isomer, unassigned) [Example 107]	0.101 to 1
N[C@@H](CC(=O)NCc1ccc(OC(F)F)cc1)Cc1ccccc1F [Example 153]	1 to 2
COc1ccc([C@@H](C)NC(=O)C[C@H](N)Cc2ccccc2F)cc1 [Example 99]	1 to 2
NC(=O)c1ccc(CNC(=O)C[C@H](N)Cc2ccccc2F)cc1 [Example 31, 4-{[(3R)-3-Amino-4-(2-fluoro-phenyl)-butyrylamino]-methyl}-benzamide.trifluoroacetate Salt]	0.101 to 1
